“Also recorded” adds a separate entry of the source. Marks after values point to notes of the source that are not given here.
How the values were obtained:
[1] = system: Aβ40 and Aβ42 levels in mAPP N2a cells; test: Sandwich ELISA of soluble Aβ40 and Aβ42 levels in mAPP N2a cells; format: cell-based, mouse; conditions: ligand 1-treated mAPP N2a cells vs untreated mAPP cells
Description: ELISA Ligand based inhibition of BACE1 activity, Aβ 40 and 42. BACE1 activity, Levels of Aβ40 and 42. To determine whether ligand 1 lowers BACE1 activity and reducing the Aβ40 and Aβ42 levels, the inventors measured BACE1 activity, Aβ40 and Aβ42 levels in mutant APP cells (N2a+mutant cDNA transfected) treated with ligand 1 using Sandwich ELISA.
The N2a cells grown for 6 days in a serum-free medium (1:1 mixture of DMEM and OptiMEM, plus penicillin and streptomycin (Invitrogen, Carlsbad, CA, USA) until the cells developed neuronal processes. As shown in (FIG. 10), these cells were used for 4 groups—one control group and 3 treatment groups. 1) untreated N2a cells (the control group), 2) N2a cells treated with ligand 1 (N2a+ligand 1), 3) N2a cells transfected mAPP with the (lipofectamine) (20 μM final concentration for 6 hrs (mAPP), 4) N2a cells transfected with mAPP cDNA for 6 hrs, treated with ligand 1 (mAPP+ligand 1 treatment group), N2a cells treated with ligand 1 for 24 hrs and then treated with the mAPP cDNA for 6 hrs (ligand 1+mAPP treatment group). […]
ELISA Ligand based BACE1 inhibition of Aβ 40 and 42. […] For each sample, Aβ1-40 and Aβ1-42 were measured with commercial colorimetric ELISA kits (Biosource International, Camarillo, CA, USA) specific for human. […] Protein concentrations of the homogenates were determined following the […], and Aβ was expressed as pg Aβ/mg protein.

mAPP N2a cells = test: qRT-PCR mRNA expression in mAPP N2a cells treated with ligand 1; format: cell-based, mouse
Procedure: The N2a cells grown for 6 days in a serum-free medium (1:1 mixture of DMEM and OptiMEM, plus penicillin and streptomycin (Invitrogen, Carlsbad, CA, USA) until the cells developed neuronal processes. As shown in (FIG. 10), these cells were used for 4 groups—one control group and 3 treatment groups. 1) untreated N2a cells (the control group), 2) N2a cells treated with ligand 1 (N2a+ligand 1), 3) N2a cells transfected mAPP with the (lipofectamine) (20 μM final concentration for 6 hrs (mAPP), 4) N2a cells transfected with mAPP cDNA for 6 hrs, treated with ligand 1 (mAPP+ligand 1 treatment group), N2a cells treated with ligand 1 for 24 hrs and then treated with the mAPP cDNA for 6 hrs (ligand 1+mAPP treatment group). As shown in (FIG. 10), the inventors performed 4 independent cell cultures and treatments for all experiments (n=4).
mRNA levels of mitochondrial dynamics and mitochondrial biogenesis and synaptic genes. Using the reagent TriZol (Invitrogen), the inventors isolated total RNA from 4 independent treatments of N2a cells (n=4) from control (untreated N2a cells) and experimental treatments (N2a cells treated with Ligand 1; N2a cells transfected with mAPP; N2a cells transfected with mAPP and then treated with Ligand 1. Using primer express Software (Applied Biosystems), the inventors designed the oligonucleotide primers for the housekeeping genes β-actin, GDPH; APP-related genes (APP, BACE1 and PSN1); mitochondrial structural genes; fission (Drp1 and Fis1); fusion genes (MFN1, MFN2, Opa1) (54), mitochondrial biogenesis genes (PGC1α, Nrf1, Nrf2, and Tfam) (Manczak et al., 2019), and synaptic proteins (SYN, PSD95 and MAP2). The primer sequences and amplicon sizes are listed in (Table 1). With SYBR-Green chemistry-based quantitative real-time RT-PCR, the inventors measured mRNA expression of the genes mentioned above as described by Manczak et al. 2019(54). Briefly, 2 μg of DNAse-treated total RNA was used as starting material, to which the inventors added 1 μl of oligo (dT), 1 μl of 10 mM dNTPs, 4 μl of 5× first strand buffer, 2 μl of 0.1 M DTT, and 1 μl RNAse outout. The reagents RNA, dT), and dNTPs were mixed first, then heated at 65° C. for 5 min, and finally chilled on ice until the remaining components were added. The samples were incubated at 42° C. for 2 min, and then 1 μl of Superscript II (40 U/μl) was added. The samples were then incubated at 42° C. for 50 min, at which time the reaction was inactivated by heating at 70° C. for 15 min.
Quantitative real-time PCR amplification reactions were performed in N2a cells in an ABI Prism 7900 sequence detection system (Applied Biosystems, Foster City, CA) in a 25-μl volume of total reaction mixture. The reaction mixture consisted of 1×PCR buffer containing SYBR-Green; 3 mM MgCl2; 100 nm of each primer; 200 nm of dATP, dGTP, and dCTP each; 400 nm of dUTP; 0.01 U/μl of AmpErase UNG; and 0.05 U/μl of AmpliTaq Gold. A 20 ng cDNA template was added to each reaction mixture.
The CT-values of β-actin was tested to determine the unregulated endogenous reference gene in N2a cells that were treated with Aβ and protective molecules, and in untreated N2a cells. In the latter case, the CT-value was similar in untreated and N2a cells treated with MTAs and Aβ. The CT-value is an important quantitative parameter in real-time PCR analysis as described in Gutala and Reddy (2004) (55). All RT-PCR reactions were carried out in triplicate, with no template control. The PCR conditions were: 50° C. for 2 min and 95° C. for 10 min, followed by 40 cycles of 95° C. for 15 sec and 60° C. for 1 min. The fluorescent spectra were recorded during the elongation phase of each PCR cycle. To distinguish specific amplicons from non-specific amplifications, a dissociation curve was generated. […]

[2] = N2a + mAPP + ligand1 relative to mAPP N2a cells
[3] = N2a + mAPP + ligand1 relative to mAPP N2a cells, listed as ligand 1
[4] = N2a + mAPP + ligand1 relative to mAPP N2a cells, listed as ligand1
[5] = N2a + mAPP + ligand1 relative to mAPP N2a cells, negative = decrease
[6] = N2a + mAPP + ligand1 relative to untreated N2a cells
[7] = ligand 1 treated mAPP cells relative to mAPP cells, size of the decrease, P<0.05

## [(6As,8S,10aS,12aS)-10a, 12a-dimethyl-2-oxo-3,4,4a,4b,5,6,6a,7,8,9,10,10b,11,12-tetradecahydro-1H-naphtho[2,1-f]quinolin-8-yl] 4-[4-[bis(2-chloroethyl)amino]phenyl]butanoate [Ligand 1]
[1]; P=0.005
  Aβ42 level: significantly lower; also recorded: reduced
[1]; soluble, P=0.01
  Aβ40 level: decreased; also recorded: reduced
mAPP N2a cells; [2]
  mRNA fold change Mfn1: 1.3 fold
  mRNA fold change OPA1: 1.2 fold
mAPP N2a cells; [3]
  mRNA fold change Mfn2: 1.5 fold
  mRNA fold change Nrf1: 2.1 fold
  mRNA fold change Nrf2: 2.1 fold
  mRNA fold change PGC1a: 2.0 fold
  mRNA fold change PSD95: 1.3 fold
  mRNA fold change Synaptophysin: 1.9 fold
  mRNA fold change TFAM: 1.8 fold
mAPP N2a cells; [4]
  mRNA fold change Mfn2: 1.5* fold
  mRNA fold change Nrf1: 2.1** fold
  mRNA fold change Nrf2: 2.1** fold
  mRNA fold change PGC1a: 2.0** fold
  mRNA fold change PSD95: 1.8* fold
  mRNA fold change Synaptophysin: 1.9* fold
  mRNA fold change TFAM: 1.8* fold
mAPP N2a cells; [5]
  mRNA fold change APP: −1.5* fold
  mRNA fold change BACE1: −1.4* fold
  mRNA fold change Drp1: −2.3** fold
  mRNA fold change Fis1: −1.5* fold
  mRNA fold change Presenilin1: −1.5* fold
mAPP N2a cells; [6]
  mRNA fold change APP: 1.3 fold
  mRNA fold change BACE1: 1.1 fold
  mRNA fold change Drp1: 1.1 fold
  mRNA fold change Fis1: 1.0 fold
  mRNA fold change Mfn1: −1.2 fold
  mRNA fold change Mfn2: 1.1 fold
  mRNA fold change Nrf1: 1.2 fold
  mRNA fold change Nrf2: 1.4 fold
  mRNA fold change OPA1: 1.1 fold
  mRNA fold change PGC1a: 1.2 fold
  mRNA fold change PSD95: 1.3 fold
  mRNA fold change Presenilin1: −1.2 fold
  mRNA fold change Synaptophysin: 1.3 fold
  mRNA fold change TFAM: 1.5 fold
mAPP N2a cells; [7]
  APP mRNA, fold decreased: 1.5 fold
  BACE1 mRNA, fold decreased: 1.4
  PSN1 mRNA, fold decreased: 1.5
mAPP N2a cells; mAPP+ligand 1 treated cells relative to mAPP cells, size of the decrease, P<0.005
  Drp1 mRNA, fold reduced: 2.3 fold
mAPP N2a cells; mAPP+ligand 1 treated cells relative to mAPP cells, size of the decrease, P<0.05
  Fis1 mRNA, fold reduced: 1.5 fold
